Patent publication US7943330B2, “Tailored glycoproteomic methods for the sequencing, mapping and identification of cellular glycoproteins” (Academia Sinica, priority 2007, dated 2011)

Columns and labels:
[1] = test system: cell extracts (soluble lysate fractions); test: SDS/PAGE, Western blot and fluorescence detection of labeled glycoproteins in cell extracts; assay type: cell-based; settings: for signal by Western blot or fluorescence: control sugars processed under the same click condition; for biotin-labeling signal of proteins by Western blot: lysate clicked with biotin probe, mouse anti-biotin MAb, 200 micromolar Fucyne, 25 micromolar ManNAcyne, 3 days
Experimental: Immunoblotting (IB) and immunoprecipitation (IP): Cells were seeded at 3×10^6/8 ml per 10-cm dish and treated with control and test sugars (200 micromolar Fuc vs. Fucyne or 25 micromolar ManNAc vs. ManNAcyne) in growth medium at 37° C. After 3 days, cell extracts were prepared by resuspending the cells in 1 ml of lysis buffer (1% Nonidet P-40/150 mM NaCl/protease inhibitor/100 mM sodium phosphate, pH 7.5). Protein extract (1 mg/ml) was labeled for 1 h at room temperature (0.1 mM biotin probe, or fluorogenic coumarin probe, 0.1 mM tris-triazoleamine catalyst, 1 mM CuSO4, and 2 mM sodium ascorbate, in PBS; the azido rhodamine probe was a gift from Benjamin F. Cravatt, The Scripps Research Institute). Labeled protein lysate was resolved by SDS/PAGE. For immunoblotting of biotin-labeled glycoproteins, electrophoresed proteins were transferred onto PVDF membranes, blocked for 20 min with SuperBlock® Blocking Buffer. Blots were either probed for 1 h with anti-biotin MAb (1 microgram/ml), and incubated with peroxidase-conjugated goat anti-mouse IgG (1:7,500 dilution) for 30 min; or probed for 1 h with peroxidase-conjugated anti-biotin Ab (Calbiochem)(1:5000 in SuperBlock). Each step was followed by a wash with 0.02% Tween 20/PBS (PBST). Signal was developed with SuperSignal Chemiluminescent Substrate and detected by exposure to x-ray film. For detecting the coumarin-labeled glycoproteins, gels were examined under 365 nm UV light with a 535+/−50 nm filter. Images were taken by using a BioDoc-It imaging system (UVP). Rhodamine gels were analyzed as described (Speers A E, Cravatt B F (2004) Chem Biol 11:535-546).

[2] = test system: Hep3B hepatocellular carcinoma cells; test: Confocal microscopy of intracellular labeling of alkynyl-tagged glycans; assay type: cell-based, Human; settings: 3-day incubation; biotin probe and fluorogenic coumarin probe; compared with the Fucyne result
Experimental: (§1) To visualize the localization of alkyne-tagged glycans, adherent cells were grown on slides in the presence or absence of alkynyl sugar analogs or precursors. After a 3-day-incubation, cells attached to the slides are fixed, permeabilized, and labeled with either a biotin probe or fluorogenic coumarin probe for fluorescent signal analysis with confocal microscopy, as shown in FIG. 3C. For comparison, samples are also stained with wheat germ agglutinin (WGA, a Golgi marker).
(§2) Fluorescent Labeling in Cells: Human hepatocellular carcinoma cells (Hep3B) or breast adenocarcinoma cells (MCF7) were seeded onto six-well plates (3×10^5/2 ml per well) containing glass coverslips, and were cultivated in 10% FCS/DMEM or 10% FCS/RPMI medium 1640. Growth medium was supplemented with a control sugar (200 micromolar Fuc or 25 micromolar ManNAc) and an alkynyl-modified sugar (Fucyne or ManNAcyne at the same concentration as control sugars). After growing for 3 days, cells on coverslips were fixed and permeabilized with acetone for 10 min, then subjected to the probe labeling reaction: 0.1 mM biotin probe or fluorogenic coumarin probe, 0.1 mM Tris-triazoleamine catalyst, 1 mM CuSO4, 2 mM sodium ascorbate, in PBS, at room temperature for 30 min. Subsequently, the fixed and labeled cells were rinsed with PBS and stained with Alexa Fluor 594-conjugated WGA lectin (2 micrograms/ml in 5% BSA/PBS) and/or fluorescein-conjugated streptavidin (2 micrograms/ml in 5% BSA/PBS) at room temperature for 30 min. Hoechst 33342 (10 microgram/ml in PBS) was used to stain nuclei. Fluorescent images were captured by Bio-Rad (Carl Zeiss) Radiance 2100 Rainbow laser scanning confocal microscopy system.

Jurkat cells = test: Flow cytometry of cell-surface CuAAC labeling of alkynyl-tagged glycans; assay type: cell-based; settings: for cell-surface fluorescent labeling: CuAAC with 3-azido-7-hydroxycoumarin probe
Experimental: Cell culture: Breast cancer MCF-7 and Jurkat cells were cultivated (2×10^6/10 ml) in RPMI 1640 medium (Invitrogen) supplemented with 10% FCS. Peracetylated alkynyl sugars Fucyne (200 uM) and ManNAcyne (25 uM) or native control sugars ManNAc for 1 to 3 days at 37° C.
Flow cytometry analysis: Cells were harvested, washed with 0.1% FCS/PBS, and resuspended (10^6 cells for Jurkat cells; 3×10^5 cells for other cells) in 100 microliters of click reaction solution (0.1 mM biotin probe, 0.1 mM Tris-triazoleamine catalyst, 0.1 mM CuSO4/0.5 mM sodium ascorbate, in PBS). The reaction was incubated at room temperature for 30 min, and then the cells were washed twice with 0.1% FCS/PBS. Cells treated with biotin probe were subsequently stained with fluorescein-conjugated streptavidin (0.5 microgram per sample in 50 microliters of 1% FCS/PBS) for 30 min at 4° C., and washed three times with 1% FCS/PBS. Data were acquired by BD LSR II with FACSDiva software, and were analyzed by CellQuestPro software (BD Biosciences).

[3] = test system: MCF7 (breast adenocarcinoma) cells; test: Confocal microscopy of intracellular labeling of alkynyl-tagged glycans; assay type: cell-based, Human; settings: 3-day incubation, biotin probe and fluorescein-conjugated streptavidin, overlaps with WGA (Golgi) signal
Experimental: as §1, §2

cells = test: Cell toxicity of sugar analogs at the levels used for metabolic incorporation; assay type: cell-based; settings: compared with azido Fuc analogs of previous approaches; 200 μM fucose precursors, 25 μM sialic acid precursors
Experimental: In an exemplary implementation of the MOE method disclosed herein, an appropriate cell growth medium is supplemented with a peracetylated version of the CuAAC competent sugars, 25 μM for sialic acid precursors and 200 μM for fucose precursors (although peracetylation increases cellular uptake of sugars, the acetate groups are cleaved by esterases before it is converted to the nucleotide-sugar donor and incorporated into emerging glycans via glycosyltransferases). As shown by the biosynthetic pathways in FIG. 1, the ManNAc derivatives feed directly into de novo synthesis of NeuAc-CMP, whereas, fucose derivatives are incorporated through a salvage pathway for the synthesis of Fuc-GDP. For labeling, the alkyne-tagged cellular glycans, cells and/or cell lysates are treated with an appropriate CuAAC probe (depicted as 6-8 in FIG. 2). Overall, CuAAC is well-suited for functionalizing cellular glycans since it may be performed in aqueous environments, with high chemoselectively, to form stable 1,2,3-triazoles in nearly quantitative yield, starting from inconspicuous and inert azide or alkyne reaction partners. In conjunction the triazole ligand, CuAAc reactions can be executed under very mild and biocompatible conditions, requiring ambient temperature and low reactant concentrations. […] CuAAC is well-suited for end-point analysis, such as flow cytometry and glycoproteomic purposes. […]

[4] = test system: plexin B2 in A549 mock, FucT4 and FucT6 cells; test: Incorporation of alkynyl fucose into plexin B2 glycans (IP, on-membrane click reaction, streptavidin blot); assay type: cell-based; settings: alkynyl fucose-treated mock, stronger in FucT4/6-overexpressing cells, no signal without treatment
Experimental: Total proteins were extracted from untreated or alkynyl fucose-treated mock control, FucT4 and FucT6 stable cell lines. Proteins ([…]) were dissolved in 500 ml IP buffer (1% NP-40, 150 mM NaCl, 10% glycerol, 50 mM HEPES, pH 7.5 and 1×EDTA-free protease inhibitor cocktail) and precleared with 25 ml protein G beads (GE Healthcare) at 4° C. for 1 h. Precleared proteins extracts were then incubated with 3 mg anti-plexin B2 antibody/25 ml protein G beads at 4° C. for 1 h for overnight. Immunoprecipitates were subjected to SDS-PAGE and the proteins were transferred to PVDF membrane. After blocking with 5% BSA/PBST (0.1% Tween 20/PBS) for 1 h and wash with PBST and PBS sequentially, the protein-side of PVDF membrane was faced down to immerse in click reaction mixture (0.1 mM azido biotin, 0.1 mM Tris-triazoleamine catalyst, 1 mM CuSO4, 2 mM sodium ascorbate; 1 ml for a blot from a mini-gel) and incubated at room temperature for 1 h. After wash with PBST twice, the membrane was probed with peroxidase-conjugated streptavidin for biotin tags on blots.
Comparative profiling of fucosylated N-linked glycoproteins using the GIDmap method disclosed herein was conducted in lung cancer cell line A549 over-expressing either fucosyltransferases (FucT) 4 or 6. […] The biotin signals were then detected by immunoblotting with peroxidase-conjugated streptavidin. […]

Compound | signal by Western blot or fluorescence [1] | intracellular labeling signal (confocal microscopy) [2] | cell-surface fluorescent labeling (Jurkat cells) | intracellular labeling signal (confocal microscopy) [3] | toxicity to cells (cells) | biotin-labeling signal of proteins by Western blot [1] | cell-surface labeling signal (Jurkat cells; CuAAC-labeled with biotin, detected by fluorescein-conjugated streptavidin, vs control ManNAc) | biotin signal of immunoprecipitated plexin B2 after on-membrane CuAAC [4]
CC(=O)N[C@@H]1C(O)O[C@H](CO)[C@@H](O)[C@@H]1O (stereo partly shown) [ManNAc, N-acetylmannosamine, reference compound] | little to no signal | very low background | – | – | – | – | – | –
C[C@H](O)[C@@H](O)[C@@H](O)[C@H](O)C=O [Fuc, Fucose, reference compound] | little to no signal | – | very low background signals | very low background | – | – | – | –
C#CCCC(=O)N[C@@H]1C(OC(C)=O)O[C@H](COC(C)=O)[C@@H](OC(C)=O)[C@@H]1OC(C)=O (stereo partly shown) [ManNAcyne, 1,3,4,6-tetra-O-acetyl-N-4-pentynoylmannosamine] | – | – | – | – | greatly reduced toxicity | specific biotin-labeling signals were detected | specific signal on the cell surface | –
1,2,3,4-tetraacetyl alkynyl fucose [Fucyne] | – | – | significant fluorescent labeling | strong punctuate-labeling signal | greatly reduced toxicity | specific biotin-labeling signals were detected | – | positive signals
